Earlier results as cited in patent US20070276004A1, “Pharmaceutical Composition Comprising an Immunosuppressant for Use in the Treatment of Skin Diseases” (priority 2003, published 2007).

Test system: allogeneic kidney transplantation
Details: rat model of allogeneic kidney transplantation; oral administration; suppression of systemic immune response

For `C=CC[C@@H]1/C=C(\C)C[C@H](C)C[C@H](OC)[C@H]2O[C@@](O)(C(=O)C(=O)N3CCCC[C@H]3C(=O)O[C@H](/C(C)=C/[C@@H]3CC[C@@H](O)[C@H](OC)C3)[C@H](C)[C@@H](O)CC1=O)[C@H](C)C[C@@H]2OC` [tacrolimus], which “minimum effective dose (MED)” value is on record?
The value was 14 mg/kg.
